Data: patent publication US20240024347A1 (The Johns Hopkins University, priority 2020, published 2024)
Read-outs that look alike come from different tables or passages of the source.

Assays:
[1] = system: NALM6-Luc-mCh-Puro human acute lymphoblastic leukemia; assay: In vivo antitumor efficacy, NALM6-Luc-mCh-Puro leukemia in female NSG mice (BLI); conditions: MK-905 40 then 20 mg/kg i.p./day, 6-MP 20 then 10 mg/kg i.p./day; for day 15 mean BLI signal: 5 days/week, vehicle 1.65×10^10; for percent of the median vehicle group tumor BLI signal: day 15
Method: (§1) The in vivo antitumor efficacy of MK-905 was evaluated in the NALM6-Luc-mCh-Puro human acute lymphoblastic leukemia in female NSG mice. Mice were inoculated with tumor cells on day 0, staged by BLI on day 3, and sorted into matched treatment groups. The primary endpoint of the study was tumor bioluminescence imaging (BLI) signal. Secondary endpoints included: animal survival, weight changes, and clinical pathology markers. Single timepoint drug metabolite testing was conducted after the first dose of MK-905. Studies were run in comparison to vehicle or 6-MP treatment.

[2] = Single timepoint drug metabolite testing (6-TGMP in mouse plasma) after first dose; type: in vivo; conditions: two hours following initial dose
Method: as §1

[3] = system: healthy NSG mice; conditions: for mice survived >2 weeks: 40 mg/kg group; for Mice surviving >2 weeks: 5 d/week, i.p., healthy female NSG mice, n=5/group
Method: Animal weights and body condition scores were measured three times per week. After twenty one days, surviving mice were euthanized and blood collected for clinical chemistry measurements (complete blood count with differential, clinical chemistries). […] 80% of mice survived >2 weeks in the MK-905 40 mg/kg group, and 100% of mice survived the study in the vehicle and MK-905 20 mg/kg groups.

[4] = system: murine NPcis (NF1^+/−;p53^+/−) tumor cells; assay: Tumor growth in murine sarcoma model (subcutaneous NPcis flank tumors); type: in vivo, mouse
Method: (§2) C57BL/6 mice at 10 weeks of age between 25 g and 30 g were obtained from Envigo. To induce solid tumor growth in animals, 3-5 million murine NPcis (NF1^+/−;p53^+/−) tumor cells grown and harvested from cell culture, were injected subcutaneously to the right flank. […] Animals were then randomly assigned to a treatment arm: Vehicle or MK-905 (n=10/group; average tumor volume of ˜200 mm^3). […] Tumor volume was calculated by the formula: volume=(L×(W^2))/2. […]

[5] = ALT (liver inflammation marker) and animal weight in sarcoma-model mice
Method: as §2

| SMILES | day 15 mean BLI signal [1] | percent of the median vehicle group tumor BLI signal [1] | conversion to the active 6-thioguanine monophosphate (6-TGMP) metabolite [2] | mice survived >2 weeks ([3]; healthy NSG mice) | mean tumor volume ([4]; 6-MP 20 mg/kg i.p., following ten days of dosing, vehicle 2,038 mm^3) | blood ALT increase compared to vehicle-treated mice ([5]; at sacrifice, 6-MP 20 mg/kg i.p., ten days) | blood ALT as a marker of liver inflammation ([5]; at sacrifice, 6-MP 20 mg/kg i.p., ten days, vehicle 20 U/L) | mice survived the study ([3]; 20 mg/kg group, healthy NSG mice, twenty one days) | Mice surviving >2 weeks ([3]; 20 mg/kg) | Mice surviving >2 weeks ([3]; 40 mg/kg) | mean tumor volume ([4]; MK-905 13 mg/kg i.p., following fourteen days of dosing, vehicle 1,657 mm^3) | Tumor weights at sacrifice ([4]; MK-905 13 mg/kg i.p., fourteen days, vehicle 1276 mg) | Animal weights relative to starting weight ([5]; MK-905 13 mg/kg i.p., fourteen days) | Serum ALT as a marker of liver inflammation (in words) ([5]; MK-905 13 mg/kg i.p., fourteen days, versus vehicle) |
| --- | --- | --- | --- | --- | --- | --- | --- | --- | --- | --- | --- | --- | --- | --- |
| Sc1ncnc2nc[nH]c12 [6-MP, 6-mercaptopurine, reference compound] | 1.36×10^10 photons/sec | 77% | no active metabolite was observed | no mice surviving | 1,107 mm^3 | two-fold increased | 46 U/L | – | – | – | – | – | – | – |
| CC(C)OC(=O)[C@H](C)NP(=O)(OC[C@H]1OC(n2cnc3c(=S)[nH]c(N)nc32)C(O)C1O)Oc1ccccc1 (stereo partly drawn) [MK-905] | 3.27×10^8 photons/sec | 1.3% | observed | 80% | – | – | – | 100% | 5/5 | 4/5 | 415 mm^3 | 359 mg | ≤ 10% | normal and not significantly different |
